Assay results from US20060252807A1, “Novel ortho-terphenyl inhibitors of p38 kinase and methods of treating inflammatory disorders” (Kalypsys, Inc., priority 2005, published 2006).

Each molecule was assayed against T1, active p38 alpha enzyme (Upstate Biotechnology) (Homo sapiens, UniProt Q16539) (assay: p38α biochemical assay (ATP turnover, luminescent detection, Cambrex PKlight)). Conditions: p38α kinase; Table 1 Biological Activity.
T1 construct: purchased Upstate Biotechnology
In short: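 Compounds in DMSO are added to active p38 alpha with MapkapK2 whole protein and ATP at 1.4 uM final. Reactions then run for 2 hours at 30C. A luminescent reagent is added last to quantify total ATP consumed.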

T1 sequence (Q16539 whole entry): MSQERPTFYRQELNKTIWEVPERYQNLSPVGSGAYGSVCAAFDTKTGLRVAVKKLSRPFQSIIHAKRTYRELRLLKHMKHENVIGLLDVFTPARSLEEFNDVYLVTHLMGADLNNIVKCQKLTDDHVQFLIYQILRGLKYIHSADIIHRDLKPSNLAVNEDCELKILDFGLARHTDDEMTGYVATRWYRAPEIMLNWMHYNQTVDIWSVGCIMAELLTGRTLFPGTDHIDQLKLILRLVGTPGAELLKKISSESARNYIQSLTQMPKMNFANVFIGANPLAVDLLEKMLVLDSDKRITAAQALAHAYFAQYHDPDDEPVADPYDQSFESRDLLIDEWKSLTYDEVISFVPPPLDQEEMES

IC50, > 1000 nM:
COc1ccc(CNCc2nc(-c3ccc(F)cc3)c(-c3nc(C(=O)NC(C)C)cs3)o2)cc1 [Example 1125]
COc1cccc(CNCc2nc(-c3ccc(F)cc3)c(-c3nc(C(=O)NC(C)C)cs3)o2)c1 [Example 1126]
CC(C)NC(=O)c1csc(-c2oc(CNCCc3ccc(F)cc3)nc2-c2ccc(F)cc2)n1 [Example 1127]
CC(C)NC(=O)c1csc(-c2oc(CNCCc3ccccc3F)nc2-c2ccc(F)cc2)n1 [Example 1128]
CC(C)NC(=O)c1csc(-c2oc(CNCCc3cccc(F)c3)nc2-c2ccc(F)cc2)n1 [Example 1129]
CC(C)NC(=O)c1csc(-c2oc(CNCc3cccc(Cl)c3)nc2-c2ccc(F)cc2)n1 [Example 1130]
CC(C)NC(=O)c1csc(-c2oc(CNCc3ccccc3Cl)nc2-c2ccc(F)cc2)n1 [Example 1131]
CC(C)NC(=O)c1csc(-c2oc(CNCc3ccc(Cl)cc3)nc2-c2ccc(F)cc2)n1 [Example 1132]
CC(C)NC(=O)c1csc(-c2oc(CNCCCN3CCCC3=O)nc2-c2ccc(F)cc2)n1 [Example 1133]
CC(C)NC(=O)c1csc(-c2oc(CNCc3ccc(F)cc3F)nc2-c2ccc(F)cc2)n1 [Example 1134]
CC(C)NC(=O)c1csc(-c2oc(CNCc3ccc(F)c(F)c3)nc2-c2ccc(F)cc2)n1 [Example 1135]
CC(C)NC(=O)c1csc(-c2oc(CNCc3cc(F)cc(F)c3)nc2-c2ccc(F)cc2)n1 [Example 1136]
CC(C)NC(=O)c1csc(-c2oc(CNCCCN3CCOCC3)nc2-c2ccc(F)cc2)n1 [Example 1137]
CC(C)NC(=O)c1csc(-c2oc(CNCCN(C(C)C)C(C)C)nc2-c2ccc(F)cc2)n1 [Example 1138]
CC(C)NC(=O)c1csc(-c2oc(CNC3CCCc4ccccc43)nc2-c2ccc(F)cc2)n1 (stereo not drawn) [Example 1139]
CC(C)NC(=O)c1csc(-c2oc(CNC(C)CCc3ccccc3)nc2-c2ccc(F)cc2)n1 (stereo not drawn) [Example 1140]
CC(C)NC(=O)c1csc(-c2oc(CNCc3ccc(C(C)C)cc3)nc2-c2ccc(F)cc2)n1 [Example 1141]
CC(C)NC(=O)c1csc(-c2oc(CNCc3ccc4c(c3)OCO4)nc2-c2ccc(F)cc2)n1 [Example 1142]
COc1cccc(CCNCc2nc(-c3ccc(F)cc3)c(-c3nc(C(=O)NC(C)C)cs3)o2)c1 [Example 1143]
CC(C)NC(=O)c1csc(-c2oc(CN[C@H](CO)Cc3ccccc3)nc2-c2ccc(F)cc2)n1 [Example 1144]
COc1ccc(CCNCc2nc(-c3ccc(F)cc3)c(-c3nc(C(=O)NC(C)C)cs3)o2)cc1 [Example 1145]
COc1ccccc1CCNCc1nc(-c2ccc(F)cc2)c(-c2nc(C(=O)NC(C)C)cs2)o1 [Example 1146]
CCOc1ccccc1CNCc1nc(-c2ccc(F)cc2)c(-c2nc(C(=O)NC(C)C)cs2)o1 [Example 1147]
COc1ccc(NCc2nc(-c3ccc(F)cc3)c(-c3nc(C(=O)NC(C)C)cs3)o2)cc1OC [Example 1148]
CC(C)NC(=O)c1csc(-c2oc(CNCCc3ccccc3Cl)nc2-c2ccc(F)cc2)n1 [Example 1149]
CC(C)NC(=O)c1csc(-c2oc(CNCCc3ccc(Cl)cc3)nc2-c2ccc(F)cc2)n1 [Example 1150]
CC(C)NC(=O)c1csc(-c2oc(CNCCc3cccc(Cl)c3)nc2-c2ccc(F)cc2)n1 [Example 1151]
